Experimental data: patent US20120202756A1, “USE OF PRODRUGS TO AVOID GI MEDIATED ADVERSE EVENTS” (priority 2009, published 2012)
In brackets after ≈: the same amount, converted by molar mass. Several values for one entry are separate records, joined by “and”; a condition that tells them apart may be missing. Equal entries are not always repeated. Where two headings read alike, the source gives them in different places.

Assays:
[1] = molecular target: human acetylcholineesterase (Homo sapiens, UniProt P22303); assay: Human acetylcholineesterase activity in vitro assay (CEREP); type: biochemical
Chain of human acetylcholineesterase (P22303 32-614): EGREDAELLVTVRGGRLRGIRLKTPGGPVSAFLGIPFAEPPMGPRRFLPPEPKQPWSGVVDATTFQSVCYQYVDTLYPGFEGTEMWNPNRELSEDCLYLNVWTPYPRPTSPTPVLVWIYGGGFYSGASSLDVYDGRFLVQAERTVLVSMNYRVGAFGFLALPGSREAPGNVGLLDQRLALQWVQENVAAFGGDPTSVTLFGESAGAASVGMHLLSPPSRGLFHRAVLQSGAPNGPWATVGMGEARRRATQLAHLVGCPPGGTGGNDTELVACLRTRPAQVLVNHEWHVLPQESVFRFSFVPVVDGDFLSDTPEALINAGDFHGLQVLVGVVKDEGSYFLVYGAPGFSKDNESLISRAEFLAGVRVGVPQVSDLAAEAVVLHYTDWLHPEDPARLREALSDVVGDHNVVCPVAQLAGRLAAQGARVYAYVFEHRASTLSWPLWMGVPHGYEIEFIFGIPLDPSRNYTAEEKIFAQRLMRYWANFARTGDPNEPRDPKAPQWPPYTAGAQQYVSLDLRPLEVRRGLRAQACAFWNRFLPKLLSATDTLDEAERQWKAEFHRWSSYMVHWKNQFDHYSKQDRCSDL

[2] = Stability in USP simulated gastric juice; type: in vitro ADME; settings: USP SGF pH 1.1, pepsin […], prodrug 20 μg/mL
Excerpt: To minimize the direct inhibitory action of this drug on gastric emptying/gut motility—and resultant nausea—the prodrug should not undergo premature chemical or enzymic cleavage back to the parent drug while within the gut lumen.

[3] = Stability in simulated intestinal juice (FaSSIF); type: in vitro ADME; settings: FaSSIF pH 6.5, pancreatin 1%, prodrug 20 μg/mL
Experimental: (§1) To avoid direct interaction between the active drug and the gut microfloral population, the prodrug should not undergo premature chemical or enzymic cleavage back to the parent dug while within the gut lumen. To confirm this the prodrugs were incubated with USP SGF (simulated gastric fluid), FeSSIF (fed state simulated intestinal fluid) and FaSSIF (fasted state simulated intestinal fluid) and remaining prodrug and any generated active drug assayed by use of a qualified LC-MS/MS analytical method.
(§2) Method—Prodrug (20 μg/mL) in the FaSSIF cocktail comprising sodium taurocholate 3 mM, lecithin 0.75 mM, NaOH 8.7 mM, NaH2PO4. H2O 28.7 mM, NaCl 106 mM, pancreatin 1% (overall pH 6.5) was incubated for 2 h at 37° C. After acidifying the incubation to stop any reaction the amount of prodrug remaining and drug generated were determined using a qualified LC-MS/MS method.
(§3) To minimize the direct inhibitory action of this drug on gastric emptying/gut motility—and resultant nausea—the prodrug should not undergo premature chemical or enzymic cleavage back to the parent drug while within the gut lumen. To confirm this, the prodrugs were incubated with USP SGF (simulated gastric fluid), FeSSIF (fed state simulated intestinal fluid) and FaSSIF (fasted state simulated intestinal fluid) and remaining prodrug, and any generated active drug, assayed by use of a qualified LC-MS/MS analytical method.
as §2, with “Prodrug” for “Method—Prodrug”
as §1, with “gut,” for “gut microfloral population,”

[4] = Stability in simulated intestinal juice (FeSSIF); type: in vitro ADME; settings: FeSSIF pH 5.0, pancreatin 1%
Experimental: as §1
Pancreatin was again added at 1%.
as §3
as §1, with “gut,” for “gut microfloral population,”

[5] = Bioavailability of donepezil from its prodrugs in the male beagle dog; settings: relative bioavailability of donepezil vs dosing donepezil itself, male dogs
Excerpt: (§4) Subsequent pharmacokinetic analysis was then undertaken using Win NonLin to generate the relevant PK parameters including Cmax, Tmax and AUC and T1/2.

[6] = Bioavailability of donepezil from its prodrugs in the cynomolgus monkey; settings: relative bioavailability of donepezil vs dosing donepezil itself, male monkeys
Excerpt: as §4

[7] = system: Bacteroides thetaiotamicron; assay: MIC agar dilution; type: cell-based
[8] = system: Bifidobacterium adolescentis; assay: MIC agar dilution; type: cell-based; settings: NCTC11814
Bifidobacterium dentium = assay: MIC agar dilution; type: cell-based; settings: NCTC11816
Bifidobacterium longum = assay: MIC agar dilution; type: cell-based; settings: NCTC11818
Clostridium bifermentans = assay: MIC agar dilution; type: cell-based; settings: Paraclostridium bifermentans, ATCC638
Clostridium difficile = assay: MIC agar dilution; type: cell-based; settings: Clostridioides difficile
Clostridium novyi = assay: MIC agar dilution; type: cell-based; settings: ATCC19402
Clostridium perfringens = assay: microbe, parasite or virus in culture; type: cell-based
Clostridium sordellii = assay: MIC agar dilution; type: cell-based; settings: Paraclostridium sordellii, NCTC13356; NCTC 13356
Clostridium sporogenes = assay: MIC agar dilution; type: cell-based; settings: ATCC3584, ATCC 3584
Eggerthella lenta = assay: MIC agar dilution; type: cell-based; settings: ATCC43055, ATCC 43055
[9] = system: Fusobacterium necrophorum; assay: MIC agar dilution; type: cell-based; settings: clinical isolate
[10] = system: Peptostreptococcus anaerobius; assay: MIC agar dilution; type: cell-based; settings: NCTC11460
[11] = system: Peptostreptococcus magnus; assay: MIC agar dilution; type: cell-based; settings: Finegoldia magna; clinical isolate
[12] = system: Peptostreptococcus micros; assay: MIC agar dilution; type: cell-based; settings: Parvimonas micra; clinical isolate
[13] = system: Porphyromonas assacharolyticus; assay: MIC agar dilution; type: cell-based; settings: clinical isolate
[14] = system: Porphyromonas endodontalis; assay: MIC agar dilution; type: cell-based; settings: clinical isolate
Prevotella bivia = assay: MIC agar dilution; type: cell-based; settings: ATCC29303, ATCC 29303
Prevotella denticola = assay: MIC agar dilution; type: cell-based; settings: clinical isolate
Veillonella atypical = assay: MIC agar dilution; type: cell-based; settings: NCTC11830
Veillonella parvula = assay: MIC agar dilution; type: cell-based; settings: NCTC11810
Veillonella spp. = assay: MIC agar dilution; type: cell-based; settings: clinical isolate
[15] = Bioavailability of metronidazole from its prodrugs in the rat; settings: for T>50% Cmax: period plasma metronidazole at or above 50% of Cmax, oral 1 mg equivalents/kg
Experimental: In order to confirm successful absorption and subsequent hydrolysis of these metronidazole prodrugs, a comparative bioavailability study was undertaken in the rat Methods—Three groups of five male Sprague Dawley rats were orally dosed with either metronidazole itself or its succinyl valine or glutaryl para-amino benzoic acid ester prodrugs. Serial tail vein blood samples were subsequently collected via an indwelling cannuala into EDTA tubes containing a stabilising cocktail (including 6 mg/mL NaF) to prevent post collection enzymic hydrolysis of the prodrug. Separated plasma samples were subjected to bioanalysis for both the prodrugs and metronidazole itself using a qualified LC/MS-MS bioanalytical method.

Bacteroides fragilis = assay: MIC agar dilution
Propionibacterium acnes = assay: MIC agar dilution
Campylobacter coli = assay: MIC agar dilution
Campylobacter jejuni = assay: MIC agar dilution
Helicobacter pylori = assay: MIC agar dilution
[16] = NCTC13366, NCTC 13366 - NAP1/027
[17] = antibiotic-susceptible clinical isolate
[18] = clinical isolate MIC clindamycin 0.5 mg/L
[19] = clinical isolate (first listed, r83)
[20] = clinical isolate (second listed, r85)

Structure (SMILES): COc1cc2c(cc1OC)C(OC(=O)CCCC(=O)O)=C(CC1CCN(Cc3ccccc3)CC1)C2 [Donepezil glutaryl enol ester, Donepezil-(Glutaryl) enol ester]
- IC50 [1]: 830 nM

Structure (SMILES): COc1cc2c(cc1OC)C(OC(=O)CCCC(=O)N[C@H](C(N)=O)C(C)C)=C(CC1CCN(Cc3ccccc3)CC1)C2 [Donepezil glutaryl valinamide, donepezil[glutaryl-(S)-valinamide]enol ester]
- Simulated gastric juice (1 h, 37° C.) % active drug generated [2]: <2.0%
- Simulated intestinal juice (2 h, 37° C.) (FaSSIF) % active drug generated [3]: <2.0%
- Simulated intestinal juice (2 h, 37° C.) (FeSSIF) % active drug generated [4]: <2.0%
- Frel ([5]; individual animals): 85% and 25% and 62% and 44% and 28%
- Frel ([5]; mean): 49%
- Frel ([6]; individual animals): 97% and 44% and 99% and 64% and 89%
- Frel ([6]; mean): 79%

Structure (SMILES): Cc1ncc([N+](=O)[O-])n1CCOC(=O)CCC(=O)N[C@H](C(=O)O)C(C)C [Metronidazole succinyl valine ester, Metronidazole-[succinyl-(S)-valine]ester]
- MIC ([7]; ATCC29741): > 64 µg/mL
- MIC ([7]; NCTC10582): > 64 µg/mL
- MIC [8]: > 64 µg/mL
- MIC (Bifidobacterium dentium): > 64 µg/mL
- MIC (Bifidobacterium longum): > 64 µg/mL
- MIC (Clostridium bifermentans): > 64 µg/mL
- MIC (Clostridium difficile; ATCC700057, ATCC 700057): 32 µg/mL (≈ 86.4 µM)
- MIC (Clostridium difficile; [16]): 64 µg/mL (≈ 173 µM)
- MIC (Clostridium difficile; [17]): 32 µg/mL (≈ 86.4 µM)
- MIC (Clostridium novyi): > 64 µg/mL
- MIC (Clostridium perfringens): > 64 µg/mL
- MIC (Clostridium perfringens; ATCC13124): > 64 µg/mL
- MIC (Clostridium sordellii): > 64 µg/mL
- MIC (Clostridium sporogenes): 32 µg/mL (≈ 86.4 µM)
- MIC (Eggerthella lenta): > 64 µg/mL
- MIC [9]: 32 µg/mL (≈ 86.4 µM)
- MIC [10]: 32 µg/mL (≈ 86.4 µM)
- MIC [11]: 64 µg/mL (≈ 173 µM)
- MIC [12]: 64 µg/mL (≈ 173 µM)
- MIC [13]: > 64 µg/mL
- MIC [14]: > 64 µg/mL
- MIC (Prevotella bivia): > 64 µg/mL
- MIC (Prevotella denticola): > 64 µg/mL
- MIC (Veillonella atypical): > 64 µg/mL
- MIC (Veillonella parvula): > 64 µg/mL
- MIC (Veillonella spp.): > 64 µg/mL
- Tmax ([15]; male, Sprague Dawley, rat, in vivo, po): 2.0 h
- MIC (Bacteroides fragilis): > 64 µg/mL
- MIC (Bacteroides fragilis; ATCC25285): > 64 µg/mL
- MIC (Propionibacterium acnes; Cutibacterium acnes): > 64 µg/mL
- MIC (Propionibacterium acnes; [18]): >64 µg/mL
- MIC (Campylobacter coli): > 64 µg/mL
- MIC (Campylobacter coli; ATCC33559): > 64 µg/mL
- MIC (Campylobacter jejuni): > 64 µg/mL
- MIC (Campylobacter jejuni; ATCC33560): > 64 µg/mL
- MIC (Helicobacter pylori; [19]): 64 µg/mL (≈ 173 µM)
- MIC (Helicobacter pylori; [20]): 64 µg/mL (≈ 173 µM)

Structure (SMILES): Cc1ncc([N+](=O)[O-])n1CCO [Metronidazole, metronidazole, reference compound]
- MIC ([7]; ATCC29741): 1 µg/mL (≈ 5.84 µM)
- MIC ([7]; NCTC10582): 1 µg/mL (≈ 5.84 µM)
- MIC [8]: 32 µg/mL (≈ 187 µM)
- MIC (Bifidobacterium dentium): 16 µg/mL (≈ 93.5 µM)
- MIC (Bifidobacterium longum): 8 µg/mL (≈ 46.7 µM)
- MIC (Clostridium bifermentans): 0.25 µg/mL (≈ 1.46 µM)
- MIC (Clostridium difficile; ATCC700057, ATCC 700057): 0.12 µg/mL (≈ 0.701 µM)
- MIC (Clostridium difficile; [16]): 0.12 µg/mL (≈ 0.701 µM)
- MIC (Clostridium difficile; [17]): 0.06 µg/mL (≈ 0.351 µM)
- MIC (Clostridium novyi): 0.5 µg/mL (≈ 2.92 µM)
- MIC (Clostridium perfringens): 2 µg/mL (≈ 11.7 µM)
- MIC (Clostridium perfringens; ATCC13124): 1 µg/mL (≈ 5.84 µM)
- MIC (Clostridium sordellii): 0.5 µg/mL (≈ 2.92 µM)
- MIC (Clostridium sporogenes): 0.06 µg/mL (≈ 0.351 µM)
- MIC (Eggerthella lenta): 0.5 µg/mL (≈ 2.92 µM)
- MIC [9]: 0.12 µg/mL (≈ 0.701 µM)
- MIC [10]: 0.12 µg/mL (≈ 0.701 µM)
- MIC [11]: 0.25 µg/mL (≈ 1.46 µM)
- MIC [12]: 0.25 µg/mL (≈ 1.46 µM)
- MIC [13]: 0.5 µg/mL (≈ 2.92 µM)
- MIC [14]: 1 µg/mL (≈ 5.84 µM)
- MIC (Prevotella bivia): 1 µg/mL (≈ 5.84 µM)
- MIC (Prevotella denticola): 0.5 µg/mL (≈ 2.92 µM)
- MIC (Veillonella atypical): 8 µg/mL (≈ 46.7 µM)
- MIC (Veillonella parvula): 4 µg/mL (≈ 23.4 µM)
- MIC (Veillonella spp.): 2 µg/mL (≈ 11.7 µM)
- time of peak plasma levels after dosing ([15]; oral, male rats): ≤ 15 min
- T>50% Cmax ([15]; male rats, individual animals): 1.5 h and 1.75 h and 2.75 h and 3.0 h and 2.5 h
- T>50% Cmax ([15]; male rats, mean): 2.3 ± 0.65 h and 2.3 h
- MIC (Bacteroides fragilis): 0.5 µg/mL (≈ 2.92 µM)
- MIC (Bacteroides fragilis; ATCC25285): 0.5 µg/mL (≈ 2.92 µM)
- MIC (Propionibacterium acnes; Cutibacterium acnes): > 64 µg/mL
- MIC (Propionibacterium acnes; [18]): >64 µg/mL
- MIC (Campylobacter coli): 1 µg/mL (≈ 5.84 µM)
- MIC (Campylobacter coli; ATCC33559): 0.5 µg/mL (≈ 2.92 µM)
- MIC (Campylobacter jejuni): 8 µg/mL (≈ 46.7 µM)
- MIC (Campylobacter jejuni; ATCC33560): 1 µg/mL (≈ 5.84 µM)
- MIC (Helicobacter pylori; [19]): 2 µg/mL (≈ 11.7 µM)
- MIC (Helicobacter pylori; [20]): 2 µg/mL (≈ 11.7 µM)
